“Also recorded” adds a separate entry of the source.
Tests used:
[1] = system: Lewis Lung carcinoma cells; assay: Subcutaneous LLC1 tumour model with in vivo tautomerase inhibitor treatment; parameters: species or system C57BL/6 mice
Method: Log phase cultures of LLC-1 cells were harvested by trypsinisation and washed three times with sterile phosphate buffered saline (PBS) and resuspended at a cell density of 5×10^5/ml in PBS. Animals were shaved with an electric shaver 24 hours before subcutaneous injection. 5×10^5 Lewis Lung cells were injected subcutaneously into the left flank of C57BL/6 mice of 6-8 weeks. Animals were monitored for the duration of the experiment and tumour measurements were recorded twice weekly with a digital callipers. Tumour volume (mm^3) was calculated as 0.5×L×W^2, where length is representative of the larger tumour diameter and the width represents the smaller tumour diameter. Animals are sacrificed when tumours reach a diameter of 15 mm or if tumours become ulcerated. Tumours are then removed along with the lungs, spleen and liver.
30 minutes prior to LLC-1 inoculation, inhibitors (TI 19/ISO-1) were administered at a concentration of 35 mg/kg in a volume of 100 μl 5% DMSO in sterile PBS. Control groups were given injections of vehicle 5% DMSO in sterile PBS or sterile PBS alone. Animals were treated twice weekly for four weeks.
In order to assess the antitumour activity of the novel tautomerase inhibitors in vivo, a subcutaneous LLC-1 cell model was set up. The subcutaneous model was chosen so that tumours could be easily visualised and measured during the course of the experiment and to allow assessment of the growth of the tumour in real time. Lewis Lung carcinoma cells (5×10^5) were injected sub-cutaneously into the left flank of C57BL/6 mice. Caliper measurements were taken twice weekly and tumour volume (mm^3) was calculated as 0.5×L×W^2. […] The cut off point for this model was when the tumour measured 15 mm in diameter. This model gave us an indication of normal tumour growth in this subcutaneous model. It can be seen from this model that from day 22 to day 28 the size of the tumour grows considerably.
Once it was determined that the enzymatic activity played a role in the growth of tumours, the subcutaneous LLC model was then used to assess the efficiency of the small weight molecular inhibitors. C57/B16 mice were injected intraperitoneally with 35 mg/kg of each of the inhibitors 30 minutes prior to subcutaneous tumour inoculation and again twice weekly for 4 weeks. Animals were monitored daily and tumour measurements taken until the tumour measured 15 mm in diameter.

[2] = system: LPS mediated PGE-2 production; assay: PGE-2 production in LPS treated RAW macrophage cells (ELISA); format: cell-based, murine; settings: 100 μM inhibitor, 100 ng/ml LPS (FIG. 4)
Method: Raw macrophage murine cells were plated at a cell density of 1×10^5 and pre-treated with 100 μM of each of the inhibitors […] for 30 minutes at 37° C. in a humidified 5% CO2 incubator. Raw macrophage cells were then treated with 100 ng/ml of LPS and supernatants were collected after 16 hours at 37° C. in a humidified 5% CO2 incubator and analysed for PGE-2 production. Levels of PGE-2 were measured by ELISA. (CAT # KGE004 R&D Syst).

MIF tautomerase = biological target: T1, MIF tautomerase (Homo sapiens, UniProt P14174); assay: MIF tautomerase inhibition assay; format: biochemical; settings: panel of 25 potential inhibitors, 100 μM (FIG. 1, FIG. 3)
T1 construct: host or cells: E. coli BL21
T1 sequence (P14174 2-115 limits assumed): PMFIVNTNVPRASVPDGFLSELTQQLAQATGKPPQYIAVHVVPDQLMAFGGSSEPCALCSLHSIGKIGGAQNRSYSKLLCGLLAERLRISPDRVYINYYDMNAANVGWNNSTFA
Method: Human recombinant MIF was purified as per Bernhagen et al. (Biochemistry, 1994. 33(47): p. 14144-55). Briefly, BL21 E. coli cells expressing the pET11b-MIF construct were grown to an absorbance at 600 nm (OD) of […]. Isopropyl 1-thio-P-D-galactopyranoside (IPTG) (Sigma—cat no. 16758) was added to a final concentration of 1 mM to induce expression of the MIF gene and incubated for another 3 hours. Bacteria were then harvested by centrifugation and the cell pellets were then frozen. Protein purification was then out sourced to Scottish Biomedical, where the bacterial pellets were thawed and resuspended in 3 ml of Tris-buffered saline. The bacteria were then lysed by adding an equivalent number of glass beads and vortexing strongly for 10 minutes. Glass beads were removed by centrifugation at 1000 g for 10 minutes and the bacterial extract was centrifuged at 1000 g for a further 30 minutes. The supernatant was then sterile-filtered through a […] membrane filter and put through a MONO Q anion exchange chromatography column. MIF was eluted using Tris-buffered saline in the first flow-through fractions and pooled and placed on ice. These pooled fractions were then applied to a C8-SepPak reverse phase column. Unbound material was eluted by washing with water and 20% acetonitrile/water. MIF was then eluted using 6 column volumes of 60% acetonitrile/water. This sample was then renatured by dissolving MIF at a concentration of […] in 20 mM sodium phosphate buffer containing 8M urea and 5 mM DTT and dialysed against 20 mM sodium phosphate buffer. […]
L-dopachrome methyl ester was prepared at 2.4 mM through oxidation of L-3,4-dihydroxyphenylalanine methyl ester with sodium periodate. The solution was mixed well and placed at room temperature for 5 minutes before being placed on ice in the dark. 100 ng of rMIF was added to each of the Tautomerase Inhibitors or ISO-1 at a number of concentrations (1, 50 and 100 μM) with substrate. The decrease in absorbance was measured with a spectrophotometer at 475 nm every 10 seconds for 10 minutes.
The rate of the reaction of rMIF and substrate alone was measured over time at 475 nm. This was compared to the rate of this reaction with the addition of 100 μM of each of the inhibitors. Inhibition was calculated as the percentage in the reduction of the rate of change with the addition of the inhibitor averaged over five minutes.

## Cc1ccccc1-c1cc2ccccc2c(=O)o1 [TI 19]
[1]; 35 mg/kg intraperitoneally 30 min prior to inoculation and twice weekly (FIG. 8)
  tumour volume: 116.1±30.41 mm^3
[1]; 35 mg/kg intraperitoneally, versus untreated or vehicle (DMSO) group (FIG. 8)
  reduction in tumour size, in words: significant reduction in tumour size; also recorded: significant reduction in tumour volume
[1]; at 28 days
  effectiveness in reducing tumour size relative to ISO-1: approximately twice as effective
[2]
  reduction of LPS mediated PGE-2 production, in words: significantly reduces; also recorded: greater reduction in PGE-2 than ISO-1; also recorded: reduced PGE-2 levels to comparable levels in untreated cells
MIF tautomerase
  inhibition of MIF tautomerase enzymatic activity, in words: highest percentage inhibition of MIF enzymatic activity; also recorded: significantly more potent than the commercially available small molecule MIF inhibitor ISO-1

From patent US10106519B2, “3-phenyl-7-hydroxy-isocoumarins as macrophage migration inhibitory factor (MIF) inhibitors” (The Provost, Fellows, Foundation Scholars, & the Other …, priority 2014, dated 2018)
